Each structure is given as a SMILES string.

MCH receptor, sequence (Q99705 whole entry): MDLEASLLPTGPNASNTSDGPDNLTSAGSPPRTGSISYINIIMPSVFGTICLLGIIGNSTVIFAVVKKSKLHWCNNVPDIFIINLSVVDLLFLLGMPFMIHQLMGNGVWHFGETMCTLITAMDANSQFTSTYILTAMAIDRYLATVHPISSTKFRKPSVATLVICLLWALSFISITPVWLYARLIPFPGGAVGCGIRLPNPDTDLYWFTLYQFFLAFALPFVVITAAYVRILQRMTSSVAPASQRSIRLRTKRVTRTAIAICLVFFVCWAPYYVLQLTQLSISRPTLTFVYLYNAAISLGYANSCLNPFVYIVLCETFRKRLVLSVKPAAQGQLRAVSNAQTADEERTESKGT

This test has as its target MCH receptor (Homo sapiens, UniProt Q99705). The test can be described thus: Receptor binding assay with Radiolabelled MCH Ligand. On the set-up: expressed in transfected cells; host or cells: 293 cells (human kidney, ATCC), transient transfection; crude membranes. The following applies: class by percent of control at 10^-7 M or IC50. The method, boiled down:
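Membranes from 293 cells transiently transfected with human MCH receptor competed test compounds against a radiolabelled MCH ligand in Tris-HCl pH 7.4 with MgCl2 and EDTA for 60–120 min at room temperature. Filtration and scintillation counting followed, with cold MCH defining nonspecific binding. IC50 came from logit-log plots of %B/B0, and Ki from the Cheng-Prusoff equation.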
With `Cc1nc(N[C@H]2CC[C@@H](NC(=O)/C=C/c3cccc(C(F)(F)F)c3)CC2)cc(N(C)C)n1` [compound 262], the class is on record as 3 (Class 3: The value of percent of control at 10^−7 M was more than 60% or the value of IC50 was more than 200 nM.).
Regarding `Cc1nc(N[C@H]2CC[C@@H](NC(=O)c3cnn(-c4ccccc4)c3C(F)(F)F)CC2)cc(N(C)C)n1` [compound 238], the class is 3 (Class 3: The value of percent of control at 10^−7 M was more than 60% or the value of IC50 was more than 200 nM.).
The same measure for `Cc1nc(NC2CCC(NC(=O)C(Cc3ccccc3)NS(=O)(=O)c3cccc4ccccc34)CC2)cc(N(C)C)n1` (stereo not shown) [compound 260]: 3 (Class 3: The value of percent of control at 10^−7 M was more than 60% or the value of IC50 was more than 200 nM.).
Consider `Cc1nc(N[C@H]2CC[C@@H](NC(=O)c3ccc(F)c(Cl)c3)CC2)cc(N(C)C)n1` [compound 256, 3-chloro-N-(cis-4-{[6-(dimethylamino)-2-methylpyrimidin-4-yl]amino}cyclohexyl)-4-fluorobenzamide], for which the class is 1 (Class 1: The value of percent of control at 10^−7 M was less than 40% or the value of IC50 was less than 50 nM.).
The same measure for `Cc1nc(N[C@H]2CC[C@@H](NC(=O)OCC(Cl)(Cl)Cl)CC2)cc(N(C)C)n1` [compound 470]: 3 (Class 3: The value of percent of control at 10^−7 M was more than 60% or the value of IC50 was more than 200 nM.).
On to `Cc1nc(N[C@H]2CC[C@@H](NC(=O)c3ccc(N(C)C)cc3)CC2)cc(N(C)C)n1` [compound 217], for which the class is on record as 3 (Class 3: The value of percent of control at 10^−7 M was more than 60% or the value of IC50 was more than 200 nM.).
The same measure for `Cc1nc(N[C@H]2CC[C@@H](NC(=O)CSc3ccncc3)CC2)cc(N(C)C)n1` [compound 302]: 3 (Class 3: The value of percent of control at 10^−7 M was more than 60% or the value of IC50 was more than 200 nM.).
The same measure for `Cc1nc(N[C@H]2CC[C@@H](NC(=O)Nc3ccc(Br)cc3C)CC2)cc(N(C)C)n1` [compound 420]: 3 (Class 3: The value of percent of control at 10^−7 M was more than 60% or the value of IC50 was more than 200 nM.).
As for `COC(=O)c1ccccc1S(=O)(=O)N[C@H]1CC[C@@H](Nc2cc(N(C)C)nc(C)n2)CC1` [compound 481], the class was 3 (Class 3: The value of percent of control at 10^−7 M was more than 60% or the value of IC50 was more than 200 nM.).
The same measure for `Cc1nc(N[C@H]2CC[C@@H](NS(=O)(=O)c3cc(S(=O)(=O)c4ccccc4)cs3)CC2)cc(N(C)C)n1` [compound 519]: 3 (Class 3: The value of percent of control at 10^−7 M was more than 60% or the value of IC50 was more than 200 nM.); for `Cc1nc(N[C@H]2CC[C@@H](NCc3ccccc3)CC2)cc(N(C)C)n1` [compound 354]: 3 (Class 3: The value of percent of control at 10^−7 M was more than 60% or the value of IC50 was more than 200 nM.); for `Cc1nc(N[C@H]2CC[C@@H](NS(=O)(=O)c3ccc4c(c3)CN(C(=O)C(F)(F)F)CC4)CC2)cc(N(C)C)n1` [compound 509]: 3 (Class 3: The value of percent of control at 10^−7 M was more than 60% or the value of IC50 was more than 200 nM.).
The result for `Cc1nc(N[C@H]2CC[C@@H](NC(=O)Nc3ccccc3OC(F)(F)F)CC2)cc(N(C)C)n1` [compound 424] reads 3 (Class 3: The value of percent of control at 10^−7 M was more than 60% or the value of IC50 was more than 200 nM.); that for `Cc1nc(N[C@H]2CC[C@@H](NC(=O)c3ccno3)CC2)cc(N(C)C)n1` [compound 223], 3 (Class 3: The value of percent of control at 10^−7 M was more than 60% or the value of IC50 was more than 200 nM.); that for `Cc1nc(N[C@H]2CC[C@@H](NCc3cnn(C)c3Cl)CC2)cc(N(C)C)n1` [compound 410], 3 (Class 3: The value of percent of control at 10^−7 M was more than 60% or the value of IC50 was more than 200 nM.).
The result for `Cc1nc(N[C@H]2CC[C@@H](NCc3ccno3)CC2)cc(N(C)C)n1` [compound 374] reads 3 (Class 3: The value of percent of control at 10^−7 M was more than 60% or the value of IC50 was more than 200 nM.); that for `Cc1nc(N[C@H]2CC[C@@H](NC(=O)c3ccc(F)cc3C(F)(F)F)CC2)cc(N(C)C)n1` [compound 249], 3 (Class 3: The value of percent of control at 10^−7 M was more than 60% or the value of IC50 was more than 200 nM.).
On to `CCc1cccc(C(C)C)c1NC(=O)N[C@H]1CC[C@@H](Nc2cc(N(C)C)nc(C)n2)CC1` [compound 419], for which the class is on record as 3 (Class 3: The value of percent of control at 10^−7 M was more than 60% or the value of IC50 was more than 200 nM.).
The result for `Cc1nc(N[C@H]2CC[C@@H](NC(=O)C3CCCCC3)CC2)cc(N(C)C)n1` [compound 212] reads 3 (Class 3: The value of percent of control at 10^−7 M was more than 60% or the value of IC50 was more than 200 nM.).
Take `Cc1nc(N[C@H]2CC[C@@H](NC(=O)c3snnc3C)CC2)cc(N(C)C)n1` [compound 229]: the class is reported as 3 (Class 3: The value of percent of control at 10^−7 M was more than 60% or the value of IC50 was more than 200 nM.).
The same measure for `Cc1nc(N[C@H]2CC[C@@H](NC(=O)C3=Cc4cc(Cl)ccc4OC3)CC2)cc(N(C)C)n1` [compound 271]: 3 (Class 3: The value of percent of control at 10^−7 M was more than 60% or the value of IC50 was more than 200 nM.); for `Cc1nc(N[C@H]2CC[C@@H](NC(=O)c3ccc4nonc4c3)CC2)cc(N(C)C)n1` [compound 207, N-(cis-4-{[6-(dimethylamino)-2-methylpyrimidin-4-y]amino}cyclohexyl)-2,1,3-benzoxadiazole-5-carboxamide]: 3 (Class 3: The value of percent of control at 10^−7 M was more than 60% or the value of IC50 was more than 200 nM.).
For the compound `COc1ccc(NC(=O)N[C@H]2CC[C@@H](Nc3cc(N(C)C)nc(C)n3)CC2)cc1OC1CCCC1` [compound 427], the class is 3 (Class 3: The value of percent of control at 10^−7 M was more than 60% or the value of IC50 was more than 200 nM.).
The result for `CCCCCCCOc1ccc(C(=O)N[C@H]2CC[C@@H](Nc3cc(N(C)C)nc(C)n3)CC2)cc1` [compound 251] reads 3 (Class 3: The value of percent of control at 10^−7 M was more than 60% or the value of IC50 was more than 200 nM.).
In the case of `Cc1nc(N[C@H]2CC[C@@H](NC(=O)Cc3ccc(OCc4ccccc4)cc3)CC2)cc(N(C)C)n1` [compound 204], the class is listed as 3 (Class 3: The value of percent of control at 10^−7 M was more than 60% or the value of IC50 was more than 200 nM.).
The result for `Cc1nc(N[C@H]2CC[C@@H](NC(=O)c3ccc(-c4ccccc4)cc3)CC2)cc(N(C)C)n1` [compound 201] reads 3 (Class 3: The value of percent of control at 10^−7 M was more than 60% or the value of IC50 was more than 200 nM.).
The same measure for `Cc1nc(N[C@H]2CC[C@@H](NS(=O)(=O)c3ccc(Cc4ncc(C(F)(F)F)cc4Cl)s3)CC2)cc(N(C)C)n1` [compound 510]: 3 (Class 3: The value of percent of control at 10^−7 M was more than 60% or the value of IC50 was more than 200 nM.).
The same measure for `Cc1nc(N[C@H]2CC[C@@H](NS(=O)(=O)Cc3ccccc3)CC2)cc(N(C)C)n1` [compound 476]: 3 (Class 3: The value of percent of control at 10^−7 M was more than 60% or the value of IC50 was more than 200 nM.).

Source of the values: patent US20090036448A1, “PYRIMIDINE DERIVATIVES AND METHODS OF TREATMENT RELATED TO THE USE THEREOF” (TAISHO PHARMECUTICAL CO., LTD., priority 2004, published 2009).
